From EP4268823A1, “COMPOUND FOR TREATING NEUROINFLAMMATION” (Universitätsklinikum Hamburg-Eppendorf, priority 2022, dated 2023)

System: primary neuronal cultures
Assay: Cytosolic calcium imaging of glutamate-exposed neuronal cultures
Assay type: cell-based, mouse
Settings: UNC0642 pre-treatment plus ferroptosis inhibitor (ferrostatin-1)
Protocol: For primary cortical cultures pregnant C57BL/6J, or G9afl/fl;Snap25-Cre mice were euthanized. To ensure comparability between genotypes, only embryos from heterozygous breeding's were used. Brainstem tissue of each embryo for genotyping was reserved and cortices were isolated, dissociated and cells were plated at a density of 1 × 10^5 cells per 1 cm^2 on poly-D-lysine-coated wells (5 µM Sigma-Aldrich, cat. no. A-003-M). If not stated otherwise, cells were maintained in neurobasal plus medium (supplemented with B27 plus, penicillin, streptomycin and L-glutamine; Gibco, cat. no. A3582901) at 37°C, 5% CO^2 and a relative humidity of 98%, and treated with 1 µM cytarabine (Sigma-Aldrich, cat. no. BP383) at 1 day in vitro (div) to inhibit glial cell proliferation. If no cytarabine was applied cells were maintained in PNBM medium (supplemented with neural cell survival factor, gentamycin and L-glutamine; Lonza). Throughout, cultures after 14-23 div were used for experiments. G9a inhibitor UNC0642 was used in a concentration of 1 µM and cultures were pre-treated 24 hours before further experimental procedures.
Primary neuronal cultures were seeded on Ibidi 60 µ-Dish Quad (cat. No. 80411) plates. Cultures were infected with an AAV7 containing pAAV-Syn-GCamp6f-WPRE-SV40 (86) (Addgene 100837) at 7-10 div with a 20,000-fold multiplicity of infection (MOI). AAV particles were produced according to the standard procedures of the UKE vector facility. Images were acquired with a confocal LSM 700 laser scanning confocal microscope (Zeiss) every 0.48 seconds with a 20× magnification in an imaging chamber maintaining 37 °C and 5% CO2. Infected cultures were imaged in the respective culture medium. Before applying the indicated chemicals, 5-10 min of baseline activity was first recorded. At the end of the recording, 8 µM ionomycin was applied to induce the maximum cellular calcium response that was used for normalization. For data analysis, mean fluorescence values of every cell were measured using Fiji software (NIH) and normalized to the maximal calcium response after ionomycin challenge. For each cell, mean AUC of the calcium response was calculated using a custom R script.

## COc1cc2c(NC3CCN(C(C)C)CC3)nc(N3CCC(F)(F)CC3)nc2cc1OCCCN1CCCC1 [UNC0642, 2-(4,4-difluoropiperidin-1-yl)-6-methoxy-N-[1-(propan-2-yl)piperidin-4-yl]-7-[3-(pyrrolidin-1-yl)propoxy]quinazolin-4-amine]
  potentiation of rescue effects of ferroptosis inhibition on glutamate-induced calcium overload: did not further potentiate the rescue effects of ferroptosis inhibition
